# Measured values taken from patent US12350270B2, “Antimalarial agents” (Merck Sharp & Dohme LLC, priority 2019, dated 2025).
# Tested on: parasites (ring stage, in human red blood cell culture)
# Assay: Parasite LDH growth assay (antiparasite potency, Parasite Assay)
# Assay type: cell-based, Plasmodium falciparum
# Conditions: Plasmodium falciparum, Erythrocyte, 72 h, 0.7% rings, 2% haematocrit, 72 hours at 37° C., LDH readout of parasite growth
# Outline: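 Ring-stage parasites at 0.7% parasitemia and 2% haematocrit, in RPMI-Hepes/bicarbonate with 5% heat-inactivated human serum and 0.5% albumax, were added to compound-containing medium. Cultures grew 72 h at 37 °C in gassed humidified boxes. Plates were then frozen overnight at −80 °C, thawed 4 h, and growth was measured by LDH assay.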
row,Structure (SMILES),EC50 [nM]
1,"COCC1(C)Oc2ccc(C(=O)N[C@@H]3c4ccccc4OC[C@@]3(C)O)cc2C1N1C(=N)NC(C)(C)CC1=O (stereo partly drawn) [Example 219, N-[(3S,4R)-3-hydroxy-3-methyl-chroman-4-yl]-3-(2-imino-4,4-dimethyl-6-oxo-hexahydropyrimidin-1-yl)-2-(methoxymethyl)-2-methyl-3H-benzofuran-5-carboxamide]",208
2,"CC1(C)CC(=O)N([C@@H]2CCS(=O)(=O)c3ccc(C(=O)N[C@H]4CC(C)(C)Oc5ccccc54)cc32)C(=N)N1 [Example 220, (4R)-N-[(4S)-2,2-dimethylchroman-4-yl]-4-(2-imino-4,4-dimethyl-6-oxo-hexahydropyrimidin-1-yl)-1,1-dioxo-3,4-dihydro-2H-thiochromene-6-carboxamide]",2.9
3,"CC1(C)CC(=O)N([C@H]2CCS(=O)(=O)c3ccc(C(=O)N[C@H]4CC(C)(C)Oc5ccccc54)cc32)C(=N)N1 [Example 221, (4S)-N-[(4S)-2,2-dimethylchroman-4-yl]-4-(2-imino-4,4-dimethyl-6-oxo-hexahydropyrimidin-1-yl)-1,1-dioxo-3,4-dihydro-2H-thiochromene-6-carboxamide]",190
4,"CCC1(CC)CC(=O)N([C@@H]2CCS(=O)(=O)c3ccc(C(=O)N[C@@H]4c5ccccc5C[C@H]4O)cc32)C(=N)N1 [Example 222, (4R)-4-(4,4-diethyl-2-imino-6-oxo-hexahydropyrimidin-1-yl)-N-[(1R,2R)-2-hydroxyindan-1-yl]-1,1-dioxo-3,4-dihydro-2H-thiochromene-6-carboxamide]",15.6
5,"CCC1(CC)CC(=O)N([C@H]2CCS(=O)(=O)c3ccc(C(=O)N[C@@H]4c5ccccc5C[C@H]4O)cc32)C(=N)N1 [Example 223, (4S)-4-(4,4-diethyl-2-imino-6-oxo-hexahydropyrimidin-1-yl)-N-[(1R,2R)-2-hydroxyindan-1-yl]-1,1-dioxo-3,4-dihydro-2H-thiochromene-6-carboxamide]",300
6,"CC[C@]1(C)CC(=O)N([C@@H]2CCOc3ccc(C(=O)N[C@@H]4c5cc(F)ccc5OC(C)(C)[C@H]4O)cc32)C(=N)N1 [Example 224, (4R)-4-[(4R)-4-ethyl-2-imino-4-methyl-6-oxo-hexahydropyrimidin-1-yl]-N-[(3S,4R)-6-fluoro-3-hydroxy-2,2-dimethyl-chroman-4-yl]chromane-6-carboxamide]",0.3
7,"CC[C@@]1(C)CC(=O)N([C@@H]2CCOc3ccc(C(=O)N[C@@H]4c5cc(F)ccc5OC(C)(C)[C@H]4O)cc32)C(=N)N1 [Example 225, (4R)-4-[(4S)-4-ethyl-2-imino-4-methyl-6-oxo-hexahydropyrimidin-1-yl]-N-[(3S,4R)-6-fluoro-3-hydroxy-2,2-dimethyl-chroman-4-yl]chromane-6-carboxamide]",0.8
8,"CCC1(CC)CC(=O)N([C@@H]2CCOc3ccc(C(=O)NC4c5ccccc5C(F)(F)C4(C)C)cc32)C(=N)N1 (stereo partly drawn) [Example 227, (4R)-4-(4,4-diethyl-2-imino-6-oxo-hexahydropyrimidin-1-yl)-N-(3,3-difluoro-2,2-dimethyl-indan-1-yl)chromane-6-carboxamide]",1.3
9,"CC1(C)CC(=O)N(C2CCS(=O)(=O)c3ccc(C(=O)N[C@@H]4c5ccccc5OC[C@@]4(C)O)cc32)C(=N)N1 (stereo partly drawn) [Example 228, N-[(3S,4R)-3-hydroxy-3-methyl-chroman-4-yl]-4-(2-imino-4,4-dimethyl-6-oxo-hexahydropyrimidin-1-yl)-1,1-dioxo-3,4-dihydro-2H-thiochromene-6-carboxamide]",282
10,"CC1(C)CC(=O)N(C2CCS(=O)(=O)c3ccc(C(=O)N[C@@H]4c5ccccc5OC[C@]4(C)O)cc32)C(=N)N1 (stereo partly drawn) [Example 229, N-[(3R,4R)-3-hydroxy-3-methyl-chroman-4-yl]-4-(2-imino-4,4-dimethyl-6-oxo-hexahydropyrimidin-1-yl)-1,1-dioxo-3,4-dihydro-2H-thiochromene-6-carboxamide]",59.3
11,"CC[C@]1(C)CC(=O)N([C@@H]2CCOc3ccc(C(=O)N[C@@H]4c5cc(Cl)ccc5OC[C@@]4(C)O)cc32)C(=N)N1 [Example 230, (4R)-N-[(3S,4R)-6-chloro-3-hydroxy-3-methyl-chroman-4-yl]-4-[(4R)-4-ethyl-2-imino-4-methyl-6-oxo-hexahydropyimidin-1-yl]chromane-6-carboxamide]",2.7
12,"CCC1(CC)CC(=O)N([C@@H]2CCOc3ccc(C(=O)N[C@@H]4c5cc(Cl)ccc5OC[C@H]4O)cc32)C(=N)N1 [Example 231, (4R)-N-[(3S,4R)-6-chloro-3-hydroxy-chroman-4-yl]-4-(4,4-diethyl-2-imino-6-oxo-hexahydropyrimidin-1-yl)chromane-6-carboxamide]",7.4
13,"CC[C@]1(C)CC(=O)N([C@H]2c3cc(C(=O)N[C@@H]4c5ccccc5C(F)(F)[C@H]4O)ccc3OC[C@@H]2OC)C(=N)N1 [Example 232, (3R,4S)-N-[(1R,2S)-3,3-difluoro-2-hydroxy-indan-1-yl]-4-[(4R)-4-ethyl-2-imino-4-methyl-6-oxo-hexahydropyrimidin-1-yl]-3-methoxy-chromane-6-carboxamide]",21.8
14,"CCC1(CC)CC(=O)N([C@@H]2CCOc3ccc(C(=O)NC(CC4CCCCC4)c4ccccc4)cc32)C(=N)N1 (stereo partly drawn) [Example 233, (4R)-N-(2-cyclohexyl-1-phenyl-ethyl)-4-(4,4-diethyl-2-imino-6-oxo-hexahydropyrimidin-1-yl)chromane-6-carboxamide]",7.9
15,"CCC1(CC)CC(=O)N([C@H]2c3cc(C(=O)N[C@@H]4c5ccccc5C[C@@]4(C)O)ccc3OC[C@H]2COC)C(=N)N1 [Example 235, (3R,4R)-4-(4,4-diethyl-2-imino-6-oxo-hexahydropyrimidin-1-yl)-N-[(1R,2R)-2-hydroxy-2-methyl-indan-1-yl]-3-(methoxymethyl)chromane-6-carboxamide]",0.7
16,"CCC1(CC)CC(=O)N([C@@H]2C[C@@H](OC)c3ccc(C(=O)N[C@@H]4c5ccccc5OC(C)(C)[C@H]4O)cc32)C(=N)N1 [Example 236, (1R,3R)-3-(4,4-diethyl-2-imino-6-oxo-hexahydropyrimidin-1-yl)-N-[(3S,4R)-3-hydroxy-2,2-dimethyl-chroman-4-yl]-1-methoxy-indane-5-carboxamide]",0.9
17,"CCC1(CC)CC(=O)N([C@H]2C[C@H](OC)c3ccc(C(=O)N[C@@H]4c5ccccc5OC(C)(C)[C@H]4O)cc32)C(=N)N1 [Example 237, (1S,3S)-3-(4,4-diethyl-2-imino-6-oxo-hexahydropyrimidin-1-yl)-N-[(3S,4R)-3-hydroxy-2,2-dimethyl-chroman-4-yl]-1-methoxy-indane-5-carboxamide]",240
18,"CCC1(CC)CC(=O)N([C@H]2C[C@@H](OC)c3ccc(C(=O)N[C@@H]4c5ccccc5OC(C)(C)[C@H]4O)cc32)C(=N)N1 [Example 238, (1R,3S)-3-(4,4-diethyl-2-imino-6-oxo-hexahydropyrimidin-1-yl)-N-[(3S,4R)-3-hydroxy-2,2-dimethyl-chroman-4-yl]-1-methoxy-indane-5-carboxamide]",47.8
19,"CCC1(CC)CC(=O)N([C@@H]2C[C@H](OC)c3ccc(C(=O)N[C@@H]4c5ccccc5OC(C)(C)[C@H]4O)cc32)C(=N)N1 [Example 239, (1S,3R)-3-(4,4-diethyl-2-imino-6-oxo-hexahydropyrimidin-1-yl)-N-[(3S,4R)-3-hydroxy-2,2-dimethyl-chroman-4-yl]-1-methoxy-indane-5-carboxamide]",0.9
20,"CCC1(CC)CC(=O)N([C@H]2c3cc(C(=O)N[C@@H]4c5ccccc5OC(C)(C)[C@H]4O)ccc3OC[C@@H]2C)C(=N)N1 [Example 240, (3R,4R)-4-(4,4-diethyl-2-imino-6-oxo-hexahydropyrimidin-1-yl)-N-[(3S,4R)-3-hydroxy-2,2-dimethyl-chroman-4-yl]-3-methyl-chromane-6-carboxamide]",0.6
21,"CCC1(CC)CC(=O)N([C@H]2c3cc(C(=O)N[C@@H]4c5ccccc5OC(C)(C)[C@H]4O)ccc3OC[C@H]2C)C(=N)N1 [Example 241, (3S,4R)-4-(4,4-diethyl-2-imino-6-oxo-hexahydropyrimidin-1-yl)-N-[(3S,4R)-3-hydroxy-2,2-dimethyl-chroman-4-yl]-3-methyl-chromane-6-carboxamide]",0.4
22,"CC[C@]1(C)CC(=O)N(C2c3cc(C(=O)N[C@@H]4c5ccccc5OC(C)(C)[C@H]4O)ccc3OCC2(C)C)C(=N)N1 (stereo partly drawn) [Example 243, 4-[(4R)-4-ethyl-2-imino-4-methyl-6-oxo-hexahydropyrimidin-1-yl]-N-[(3S,4R)-3-hydroxy-2,2-dimethyl-chroman-4-yl]-3,3-dimethyl-chromane-6-carboxamide]",6.1
23,"CCC1(CC)CC(=O)N(C2c3cc(C(=O)N[C@@H]4c5ccccc5C[C@H]4O)ccc3OCC2(C)COC)C(=N)N1 (stereo partly drawn) [Example 244, 4-(4,4-diethyl-2-imino-6-oxo-hexahydropyrimidin-1-yl)-N-[(1R,2R)-2-hydroxyindan-1-yl]-3-(methoxymethyl)-3-methyl-chromane-6-carboxamide]",7.8
24,"CCC1(CC)CC(=O)N([C@H]2c3cc(C(=O)N[C@@H]4c5ccccc5OC(C)(C)[C@H]4O)ccc3OC2(C)C)C(=N)N1 [Example 245, (3S)-3-(4,4-diethyl-2-imino-6-oxo-hexahydropyrimidin-1-yl)-N-[(3S,4R)-3-hydroxy-2,2-dimethyl-chroman-4-yl]-2,2-dimethyl-3H-benzofuran-5-carboxamide]",0.8
25,"CCC1(CC)CC(=O)N([C@@H]2C[C@@H](C)Oc3ccc(C(=O)N[C@@H]4c5ccccc5OC(C)(C)[C@H]4O)cc32)C(=N)N1 [Example 246, (2R,4R)-4-(4,4-diethyl-2-imino-6-oxo-hexahydropyrimidin-1-yl)-N-[(3S,4R)-3-hydroxy-2,2-dimethyl-chroman-4-yl]-2-methyl-chromane-6-carboxamide]",2
26,"CCC1(CC)CC(=O)N([C@H]2c3cc(C(=O)N[C@@H]4c5ccccc5OC[C@@]4(C)O)ccc3CC[C@@H]2OC)C(=N)N1 [Example 247, (3S,4S)-4-(4,4-diethyl-2-imino-6-oxo-hexahydropyrimidin-1-yl)-N-[(3S,4R)-3-hydroxy-3-methyl-chroman-4-yl]-3-methoxy-tetralin-6-carboxamide]",4.5
